Reference: patent US20140335050A1, “METHODS, COMPOSITIONS, AND KITS FOR THE TREATMENT OF CANCER” (The General Hospital Corporation, priority 2011, published 2014)

Columns and labels:
Type in all cases: cell-based, human
[1] = tested on: MU89 MART::EGFP cell line; assay: Melan-A/MART-1 promoter-driven EGFP reporter, kinetics by flow cytometry; settings: MU89 MART::EGFP (FIG. 11)
Procedure: FIG. 11 is a set of four graphs showing the kinetics of Melan-A/MART-1 increase. […] The same number of cells per well were plated in each well of a 24 well plate and drug was added on day zero. Each day cells were collected and assayed for that time point. Control untreated cells are shown for comparison. The data are from one representative experiment.
A kinetic analysis was performed to determine the effect of Hsp90 inhibition on Melan-A/MART-1 promoter activity over time. […] Reporter activity increases steadily for the first 72 hours of Hsp90 inhibition, and then plateaus. The need for continued presence of Hsp90 inhibitors in order for them to be effective (i.e. whether the drug can be removed after short exposure, or whether it must it be continually present) was assessed. […] To achieve full signal enhancement, it is desirable to retain the drug for at least 48 hours, after which the effect remains constant or slightly decreases.
The generation and application of EGFP reporter cells has been previously described. Briefly, a 1200 base pair human genomic DNA segment encompassing the Melan-A/MART-1 promoter was used to generate a construct driving expression of the EGFP reporter gene. Stable transfectants with this construct were generated in the low-antigen cell line A375 and the high-antigen line MM96L+ and MU89. The EGFP expression response patterns of these cells to IFN-beta and MAP kinase inhibitors recapitulates the antigen up-regulation of endogenous Melan-A/MART-1 induced by these agents.
(§1) Intracellular staining and flow cytometric analyses of cytoplasmic Melan-A/MART-1, and gp100 expression were performed as described previously. Cells were fixed with 1% formaldehyde, permeabilized with 0.1% saponin, stained with monoclonal antibodies to melanocyte antigens. Antibodies were obtained with specificity for: Melan-A/MART-1 from Vector Labs (Burlingame, Calif.); gp100/HMB45 from DakoCytomation (Carpinteria, Calif.) and then visualized with goat anti-mouse FITC-conjugated secondary antibody from Invitrogen (Frederick, Md.). The level of EGFP was determined by flow cytometry of unfixed cells washed and resuspended in 1×PBS. Surface staining of MHC Class I was carried out using the antibody W6/32 on cells harvested with Cell Stripper from MediaTech Inc. (Manassas, Va.) and carried out on ice.

MU89 melanoma cell line = assay: Antibody staining and flow cytometry (intracellular Melan-A/MART-1, gp100, TRP-2; surface MHC Class I/II)
[2] = tested on: MALME-3M melanoma cell line; assay: Antibody staining and flow cytometry (intracellular Melan-A/MART-1, gp100, TRP-2; surface MHC Class I)
Procedure: (§2) Cells were fixed with 1% formaldehyde, permeabilized with 0.1% saponin, stained with monoclonal antibodies to melanocyte antigens. Antibodies were obtained with specificity for: MART-1 from Vector Labs (Burlingame, Calif.); gp100 HMB45 from DakoCytomation (Carpinteria, Calif.) and then visualized with goat anti-mouse FITC-conjugated secondary antibody from Invitrogen (Fredrick, Md.). The level of EGFP was determined by flow cytometry of unfixed cells that were washed and resuspended in 1×PBS.
(§3) Cells were plated at a density of 1×10^5 in 1 ml of medium in a 24-well plate and cultured for varying times as indicated in results. […] After incubation, cells were collected by trypsinization and then evaluated by flow cytometry.
as §1

A375 melanoma cell line = assay: as above
Procedure: as §2, §3, §1
(§4) Cell were seeded at 1×10^6 cells in a T25 flask with 10 ml of media for the 4 day IFN-beta pre-treatments. Cells were then harvested and plated in 24 well plate at 1×10^5 cells per well in 1 ml of media for 3 day treatments.
(§5) For surface staining of HLA Class I and II antigens, cells were harvested using CellStripper™ from Mediatech (Manassas, Va.). All staining steps were performed on ice. Following a first incubation with antibody to Class I (W6/32) or Class II (L243) for 30 minutes. Stained cells were washed twice with cold PBS and then stained with a goat anti-mouse FITC secondary antibody to allow for quantitative analysis by flow cytometry. For evaluation of cytoplasmic antigens, including Melan-A/MART-1 and gp100, cells were first fixed in paraformaldehyde and permeabilized with saponin as previously described. Staining for cytoplasmic antigens was carried out at room temperature (22° C.).

MUX melanoma cell line = assay: as above
Procedure: as §2, §3, §1, §4, §5

[3] = tested on: U-118 MG glioma cell line; assay: Antibody staining and flow cytometry (intracellular gp100; surface MHC Class I/II); settings: U-118 MG; 3 days; IFN-beta 5000 Units/ml, 17-AEP 1.0, PU-H71 0.3, CCT018159 10.0 μg/ml
U-87 MG glioma cell line = assay: Antibody staining and flow cytometry (intracellular gp100; surface MHC Class I); settings: U-87 MG; 3 days; IFN-beta 5000 Units/ml, 17-AEP 0.5, PU-H71 0.3, CCT018159 5.0 μg/ml
Procedure: as §2, §3, §1

[4] = MU89 (BRAF M/WT, NRAS WT), 3 days, 17-AEP 0.50, CCT018159 10.00, PU-H71 0.30 μg/ml
[5] = MU89, 3 days, IFN-beta 5000 Units/ml, 17-AEP 1.0, PU-H71 0.3, CCT018159 10.0 μg/ml
[6] = MALME-3M (BRAF M/WT, NRAS WT), 3 days, 17-AEP 0.25, CCT018159 5.00, PU-H71 0.30 μg/ml
[7] = MALME-3M, 3 days, IFN-beta 5000 Units/ml, 17-AEP 1.0, PU-H71 0.3, CCT018159 10.0 μg/ml
[8] = 3 days, IFN-beta 5000 Units/ml, 17-AEP 0.5, PU-H71 0.15, CCT018159 2.5 μg/ml
[9] = MUX (BRAF M/M, NRAS WT), 3 days, 17-AEP 0.50, CCT018159 5.00, PU-H71 0.30 μg/ml
[10] = MUX, 3 days, IFN-beta 5000 Units/ml, 17-AEP 1.0, PU-H71 0.3, CCT018159 10.0 μg/ml

In the case of `CCc1cc(-c2n[nH]c(C)c2-c2ccc3c(c2)OCCO3)c(O)cc1O` [CCT018159], the “Time at which the fluorescent reporter signal is significantly enhanced (as early as)” value [1] was 2 days, the “HMB45, level of induction relative to untreated control cells” value (MU89 melanoma cell line; [4]) was 3.92 and the “MART-1, level of induction relative to untreated control cells” value (MU89 melanoma cell line; [4]) was 3.22. For the same molecule, the “Class I, fold increase relative to untreated control” value (MU89 melanoma cell line; [5]) was 4.2 fold, the “Class I, geometric mean of surface staining (W6/32)” value (MU89 melanoma cell line; [5]) was 75 and the “MART-1, fold increase relative to untreated control” value (MU89 melanoma cell line; [5]) was 3.0 fold. For the same molecule, the “MART-1, geometric mean of intracellular staining” value (“MART-1, geometric mean” for short) (MU89 melanoma cell line; [5]) was 99, the “TRP-2, fold increase relative to untreated control” value (MU89 melanoma cell line; [5]) was 2.7 fold and the “TRP-2, geometric mean of intracellular staining” value (“TRP-2, geometric mean” below) (MU89 melanoma cell line; [5]) was 252. The “gp100, fold increase relative to untreated control” value (MU89 melanoma cell line; [5]) was 2.2 fold, the “gp100, geometric mean of intracellular staining” value (from here on “gp100, geometric mean”) (MU89 melanoma cell line; [5]) was 273 and the “MHC Class I, geometric mean of surface staining (W6/32)” value (“MHC Class I, geometric mean” for short) (MU89 melanoma cell line; MU89, 4 day IFN-β pre-treatment (5000 Units/ml), then 3 days with fresh IFN-β and the labelled HSP90 inhibitor (label IFN-β: no inhibitor), 17-AEP 1, PU-H71 0.3, CCT018159 10 mg/ml) was 281. For the same molecule, the “MHC Class I, geometric mean” value (MU89 melanoma cell line; MU89, 4 day IFN-β pre-treatment (5000 Units/ml), then 3 days without IFN-β with the labelled HSP90 inhibitor (label IFN-β: no inhibitor), 17-AEP 1, PU-H71 0.3, CCT018159 10 mg/ml) was 232, the “MHC Class I, geometric mean” value (MU89 melanoma cell line; MU89, single agent for 3 days, no IFN-β pre-treatment, IFN-β 5000 Units/ml) was 73 and the “MHC Class I, geometric mean” value (MU89 melanoma cell line; MU89, three days, IFN-β 5000 Units/ml) was 75. For the same molecule, the “HMB45, level of induction relative to untreated control cells” value [2, 6] was 3.63, the “MART-1, level of induction relative to untreated control cells” value [2, 6] was 2.48 and the “Class I, fold increase relative to untreated control” value [2, 7] was 1.6 fold. The “Class I, geometric mean of surface staining (W6/32)” value [2, 7] was 72, the “MART-1, fold increase relative to untreated control” value [2, 7] was 2.5 fold and the “MART-1, geometric mean” value [2, 7] was 291. The “TRP-2, fold increase relative to untreated control” value [2, 7] was 2.1 fold, the “TRP-2, geometric mean” value [2, 7] was 222 and the “gp100, fold increase relative to untreated control” value [2, 7] was 3.6 fold. The “gp100, geometric mean” value [2, 7] was 823, the “MHC Class I, geometric mean” value ([2]; MALME, three days, IFN-β 5000 Units/ml) was 72 and the “Class I, fold increase relative to untreated control” value (A375 melanoma cell line; [8]) was 1.9 fold. The “Class I, geometric mean of surface staining (W6/32)” value (A375 melanoma cell line; [8]) was 70, the “MART-1, fold increase relative to untreated control” value (A375 melanoma cell line; [8]) was 2.2 fold and the “MART-1, geometric mean” value (A375 melanoma cell line; [8]) was 13. For the same molecule, the “TRP-2, fold increase relative to untreated control” value (A375 melanoma cell line; [8]) was 2.3 fold, the “TRP-2, geometric mean” value (A375 melanoma cell line; [8]) was 37 and the “gp100, fold increase relative to untreated control” value (A375 melanoma cell line; [8]) was 2.1 fold. The “gp100, geometric mean” value (A375 melanoma cell line; [8]) was 32, the “MHC Class I, geometric mean” value (A375 melanoma cell line; 4 day IFN-β pre-treatment (5000 Units/ml), then 3 days with fresh IFN-β and the labelled HSP90 inhibitor (label IFN-β: no inhibitor), 17-AEP 0.5, PU-H71 0.15, CCT018159 2.5) was 181 and the “MHC Class I, geometric mean” value (A375 melanoma cell line; 4 day IFN-β pre-treatment (5000 Units/ml), then 3 days without IFN-β with the labelled HSP90 inhibitor (label IFN-β: no inhibitor), 17-AEP 0.5, PU-H71 0.15, CCT018159 2.5) was 139. The “MHC Class I, geometric mean” value (A375 melanoma cell line; single agent for 3 days, no IFN-β pre-treatment, IFN-β 5000 Units/ml, 17-AEP 0.5, PU-H71 […], CCT018159 2.5) was 119, the “MHC Class I, geometric mean” value (A375 melanoma cell line; three days, IFN-β 5000 Units/ml, 17-AEP 0.5, PU-H71 […], CCT018159 2.5) was 70 and the “HMB45, level of induction relative to untreated control cells” value (MUX melanoma cell line; [9]) was 1.89. The “MART-1, level of induction relative to untreated control cells” value (MUX melanoma cell line; [9]) was 1.64, the “Class I, fold increase relative to untreated control” value (MUX melanoma cell line; [10]) was 1.7 fold and the “Class I, geometric mean of surface staining (W6/32)” value (MUX melanoma cell line; [10]) was 174. For the same molecule, the “MART-1, fold increase relative to untreated control” value (MUX melanoma cell line; [10]) was 1.7 fold, the “MART-1, geometric mean” value (MUX melanoma cell line; [10]) was 22 and the “TRP-2, fold increase relative to untreated control” value (MUX melanoma cell line; [10]) was 1.0 fold. The “TRP-2, geometric mean” value (MUX melanoma cell line; [10]) was 40, the “gp100, fold increase relative to untreated control” value (MUX melanoma cell line; [10]) was 1.5 fold and the “gp100, geometric mean” value (MUX melanoma cell line; [10]) was 40. The “MHC Class I, geometric mean” value (MUX melanoma cell line; MUX, 4 day IFN-β pre-treatment (5000 Units/ml), then 3 days with fresh IFN-β and the labelled HSP90 inhibitor (label IFN-β: no inhibitor), 17-AEP 1, PU-H71 0.3, CCT018159 10 mg/ml) was 599, the “MHC Class I, geometric mean” value (MUX melanoma cell line; MUX, 4 day IFN-β pre-treatment (5000 Units/ml), then 3 days without IFN-β with the labelled HSP90 inhibitor (label IFN-β: no inhibitor), 17-AEP 1, PU-H71 0.3, CCT018159 10 mg/ml) was 397 and the “MHC Class I, geometric mean” value (MUX melanoma cell line; MUX, single agent for 3 days, no IFN-β pre-treatment, IFN-β 5000 Units/ml, 17-AEP 1 μg/ml, PU-H71 0.3 μg/ml, CCT018159 10 μg/ml) was 265. For the same molecule, the “MHC Class I, geometric mean” value (MUX melanoma cell line; MUX, three days, IFN-β 5000 Units/ml, 17-AEP 1 μg/ml, PU-H71 0.3 μg/ml, CCT018159 10 μg/ml) was 174, the “Class I, fold increase relative to untreated control” value [3] was 2.0 fold and the “Class I, geometric mean of surface staining (W6/32)” value [3] was 101. The “gp100, fold increase relative to untreated control” value [3] was 1.4 fold, the “gp100, geometric mean” value [3] was 83 and the “Class I, fold increase relative to untreated control” value (U-87 MG glioma cell line) was 1.0 fold. For the same molecule, the “Class I, geometric mean of surface staining (W6/32)” value (U-87 MG glioma cell line) was 28, the “gp100, fold increase relative to untreated control” value (U-87 MG glioma cell line) was 2.5 fold and the “gp100, geometric mean” value (U-87 MG glioma cell line) was 71.
